Laboratory results taken from PMC4818757, “Small molecule inhibitors of the Dishevelled‐CXXC5 interaction are new drug candidates for bone anabolic osteoporosis therapy” (EMBO Molecular Medicine, 2016).
Where two headings read alike, the source gives them in different places.

Columns and labels:
[1] = test system: ex vivo‐cultured calvaria; test: Ex vivo calvaria culture, thickness; type: cell-based, mouse; conditions: 7 days
Procedure: Figure 1 Identification and characterization of small molecules competing Dvl–CXXC5 binding in vitro • A A scheme for in vitro screening method of small molecules competing Dvl–CXXC5 binding. Briefly, purified Dvl PDZ domain was attached to the polystyrene surface of each well of 96‐well plates. Then, PolyR‐DBM (polyarginine‐conjugated Dvl binding motif tagged with FITC) (Kim et al, 2015) was added to each well and allowed to bind to the Dvl PDZ domain; 10 μM small‐molecule compound was added to each well, and the compounds competing with Dvl PZD‐PolyR‐DBM binding were measured by a microplate reader to screen the compounds reducing fluorescence signal. • B Screening results of compounds competing Dvl–CXXC5 interaction. […] The relative numbers of β‐catenin‐positive nuclei were counted (D). […] The calvaria thicknesses were measured from the images using Image Pro software (F). […] (error bars), and significance was assessed using unpaired Student's t‐test.
Figure 3 Effect of KY‐02061 on Wnt/β‐catenin pathway, osteoblast differentiation, and ex vivo‐cultured calvaria growth • A MC3T3E1 cells were transfected with pTOPFLASH together with pCMV‐β‐gal. […] The luciferase activities of whole‐cell lysates were measured and normalized with β‐galactosidase activities. […] The calvaria thicknesses were measured from the stained sections using Image Pro software (E). […]

Dvl PDZ domain = target: T1, Dvl PDZ domain (Homo sapiens, UniProt O14640); test: Surface plasmon resonance; type: binding
T1 construct: plasmid DNA encoding Dvl-1247- 341 (the Dvl PDZ domain); His-tag (TEV-cleavable) (cleaved yes); made in house; host or cells: E. coli BL21 (DE3)
T1 sequence (O14640 247-341 limits assumed): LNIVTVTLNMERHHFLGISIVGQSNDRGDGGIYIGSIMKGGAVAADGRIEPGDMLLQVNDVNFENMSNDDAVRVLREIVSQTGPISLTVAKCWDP
Procedure: Studies on the interaction between compounds and Dvl PDZ domain were performed by surface plasmon resonance spectroscopy using the ProteOn™ XPR36 protein interaction array system (Bio‐Rad Laboratories, Inc., Hercules, CA). Purified Dvl PDZ domain was immobilized on a sensor chip, and then, various concentration of KY‐02327 in ProteOn PBS/Tween running buffer (PBS, pH 7.4 with 0.05% Tween 20) was flowed over the chip at a flow rate of 100 μl/min. The refractive index reflecting the mass concentration on the sensor surface is measured according to the manufacturer's instruction. Data were analyzed using ProteOn Manager Software 2.0 (Bio‐Rad Laboratories, Inc.).

TA-100 = test system: TA-100
From the text: (§1) Appendix Table S3. Bacterial reverse mutation assay with KY-02327
(§2) a Number of revertant colonies of treated plate/Number of revertant colonies of
(§3) vehicle control plate (Maron & Ames, 1983).
(§4) b Negative control. Vehicle: DMSO

TA-98 = test system: TA-98
From the text: as §1, §2, §3, §4

Structure (SMILES)	increase of thickness of ex vivo‐cultured calvaria compared with DMSO‐treated control ([1]; 2 μM)	thickness of ex vivo‐cultured calvaria, dose dependence [1]	binding to Dvl PDZ domain by surface plasmon resonance (Dvl PDZ domain)	Factor (revertant colonies treated plate / vehicle control plate) (TA-100; TA-100, With S-9 mix)	Revertant colonies/plate (Mean) (TA-100; TA-100, With S-9 mix, dose (g/plate): KY-02327 1000, B.P 2)	Factor (revertant colonies treated plate / vehicle control plate) (TA-100; TA-100, Without S-9 mix)	Revertant colonies/plate (Mean) (TA-100; TA-100, Without S-9 mix, dose (g/plate): KY-02327 1000, S.A 1)	Factor (revertant colonies treated plate / vehicle control plate) (TA-98; TA-98, Without S-9 mix)	Revertant colonies/plate (Mean) (TA-98; TA-98, Without S-9 mix, dose (g/plate): KY-02327 1000, 2-NF 1)	genetic toxicity in bacterial reverse mutation assay (TA-98; TA-98 and TA-100)
CCOC(=O)Cn1c(C(=O)OCC)cc2cc(OS(=O)(=O)c3ccc(C)cc3)ccc21 [KY‐02061]	51.2%	increased								
CCOC(=O)c1cc2cc(O)ccc2n1CC(=O)NCCN1CCCCC1 [KY‐02327]			binds with Dvl PDZ domain in a dose‐dependent manner	1.0	117 ± 8 colonies/plate	1.0	123 ± 6 colonies/plate	1.0	19 colonies/plate	no genetic toxicity
